Drawing on patent publication US20230295235A1, “COMPOUNDS TARGETING ALPHA4-BETA7 INTEGRIN” (ZEALAND PHARMA A/S, priority 2020, published 2023), this text covers IC50 for 1 molecule.

The term IC50 denotes the concentration at which inhibition is half-maximal.

The test deals with T1, α4β7 integrin (MAdCAM-1 binding, α4β7-positive Th memory cells) (Homo sapiens, UniProt P13612+P26010).
T1 construct: endogenous in cells; host or cells: human whole blood
T1 sequence (P13612 34-1032): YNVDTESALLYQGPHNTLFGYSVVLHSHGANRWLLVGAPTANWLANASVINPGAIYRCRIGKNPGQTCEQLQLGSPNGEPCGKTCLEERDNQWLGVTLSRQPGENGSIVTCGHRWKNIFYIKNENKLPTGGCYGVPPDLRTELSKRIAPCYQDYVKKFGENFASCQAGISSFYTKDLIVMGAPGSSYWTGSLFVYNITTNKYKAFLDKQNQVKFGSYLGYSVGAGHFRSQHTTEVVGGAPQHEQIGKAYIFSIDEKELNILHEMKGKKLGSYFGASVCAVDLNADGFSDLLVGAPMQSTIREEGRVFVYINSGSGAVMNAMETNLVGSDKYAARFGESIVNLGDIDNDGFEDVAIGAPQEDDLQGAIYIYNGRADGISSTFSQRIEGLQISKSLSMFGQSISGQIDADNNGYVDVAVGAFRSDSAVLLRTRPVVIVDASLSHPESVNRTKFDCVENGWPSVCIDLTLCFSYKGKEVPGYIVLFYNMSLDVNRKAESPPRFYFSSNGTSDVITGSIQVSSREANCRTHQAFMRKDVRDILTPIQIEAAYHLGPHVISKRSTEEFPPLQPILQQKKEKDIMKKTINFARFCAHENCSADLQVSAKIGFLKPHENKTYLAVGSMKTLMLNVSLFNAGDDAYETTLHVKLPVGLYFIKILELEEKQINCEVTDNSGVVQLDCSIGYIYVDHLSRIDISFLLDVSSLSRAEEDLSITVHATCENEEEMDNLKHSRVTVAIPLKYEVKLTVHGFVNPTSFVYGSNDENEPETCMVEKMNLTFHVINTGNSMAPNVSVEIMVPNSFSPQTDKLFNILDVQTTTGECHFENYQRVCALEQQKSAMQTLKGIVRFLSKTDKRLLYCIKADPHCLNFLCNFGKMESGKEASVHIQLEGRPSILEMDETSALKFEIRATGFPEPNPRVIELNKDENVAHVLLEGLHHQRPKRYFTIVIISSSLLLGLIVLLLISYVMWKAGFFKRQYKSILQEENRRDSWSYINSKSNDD
T1 sequence (P26010 20-798): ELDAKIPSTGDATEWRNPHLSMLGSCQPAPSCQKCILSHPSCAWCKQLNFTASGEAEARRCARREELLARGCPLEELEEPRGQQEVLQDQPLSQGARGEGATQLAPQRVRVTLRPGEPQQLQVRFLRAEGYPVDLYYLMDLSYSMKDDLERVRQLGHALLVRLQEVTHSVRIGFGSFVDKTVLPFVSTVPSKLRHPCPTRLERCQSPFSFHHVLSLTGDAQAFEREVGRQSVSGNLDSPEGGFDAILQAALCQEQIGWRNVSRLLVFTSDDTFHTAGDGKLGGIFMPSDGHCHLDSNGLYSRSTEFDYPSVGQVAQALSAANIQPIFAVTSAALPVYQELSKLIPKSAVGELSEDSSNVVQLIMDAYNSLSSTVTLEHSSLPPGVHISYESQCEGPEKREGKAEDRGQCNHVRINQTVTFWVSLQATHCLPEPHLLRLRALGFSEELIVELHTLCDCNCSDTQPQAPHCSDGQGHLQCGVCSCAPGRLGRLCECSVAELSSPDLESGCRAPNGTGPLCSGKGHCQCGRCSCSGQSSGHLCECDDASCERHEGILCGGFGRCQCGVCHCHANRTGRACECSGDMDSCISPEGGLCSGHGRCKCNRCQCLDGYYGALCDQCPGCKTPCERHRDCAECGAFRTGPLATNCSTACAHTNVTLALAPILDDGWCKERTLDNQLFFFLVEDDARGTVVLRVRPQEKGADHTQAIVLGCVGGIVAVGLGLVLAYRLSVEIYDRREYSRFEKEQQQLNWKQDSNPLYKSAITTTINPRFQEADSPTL
Kind of test: Competition assay: inhibition of biotinylated rhMAdCAM-1-Fc binding to α4β7-positive Th memory cells in whole blood (FACS receptor occupancy). In kind it is cell-based. Particulars: single donor, 4 mM MnCl2, α4β7-positive Th memory cells, read-out: IC50, inhibition of MAdCAM-1 binding to primary cells. The method, then:
The compound of Example 1 was used in competition assay on CD4+ integrin α4+β7-|o memory T cells.
Receptor occupancy in primary cells was determined by measuring the amount of biotinylated human recombinant MAdCAM-1-Fc or human recombinant VCAM-1-Fc bound to selected cell populations using flow cytometry. Human recombinant MAdCAM-1-Fc or human recombinant VCAM-1-Fc (R&D systems) were biotinylated using commercially available reagents and protocol (Pierce).
Whole blood was collected from human donors in sodium heparin tubes. A volume of 100 µL of blood was incubated with the compound of Example 1 and 4 mM MnCl2 for 1 hour at room temperature. Cells were washed twice with 1 mL of 1X Dulbecco’s phosphate buffered saline (DPBS) calcium magnesium free (CMF) (ThermoFisher Scientific) and resuspended in 100 µL of DPBS CMF. […]
Fluorescence-activated cell sorting (FACS) data was acquired by electronic gating on the basis of forward versus side scatter. […] Cell population were determined using the following markers: CD45+, CD3+, CD4+,CD45RO+, CD49d+, integrin β7, biotinylated ligands.
Compound receptor occupancy was defined as the decrease in the number of integrin β7+ or integrin β7-lo cells binding biotinylated rhMAdCAM-1 or rhVCAM-1, respectively. Receptor occupancy was calculated with the following equation: […]

Turning to `CC(C)C[C@@H]1NC(=O)c2ccc(-c3ccc(N4CCN(C(=O)c5ccccc5-c5ccccc5C(=O)N5CCN(c6ccc(-c7ccc8cc7CNC(=O)[C@@H]7CCCN7[C@H](C(=O)NC(C)(C)C)[C@H](C)NC(=O)[C@H]([C@@H](C)O)NC(=O)[C@H](CC(=O)O)NC(=O)[C@H](CC(C)C)NC8=O)cc6)CC5)CC4)cc3)c(c2)CNC(=O)[C@@H]2CCCN2[C@H](C(=O)NC(C)(C)C)[C@H](C)NC(=O)[C@H]([C@@H](C)O)NC(=O)[C@H](CC(=O)O)NC1=O` [Example 1, 2,2′-((S,S,S,S,S,S,1^2,8S,11S,14S,17S,18S)-((([1,1′-Biphenyl]-2,2′-Dicarbonyl)-Bis(Piperazine-4,1-Diyl))Bis(4,1-Phenylene))Bis(18-(Tert-Butylcarbamoyl)-14-((R)-1-Hydroxyethyl)-8-Isobutyl-17-Methyl-2,6,9,12,15-Pentaoxo-3,7,10,13,16-Pentaaza-1(2,1)-Pyrrolidina-5(1,3)-Benzenacyclooctadecaphane-5^6,11-Diyl))-Diacetic Acid], the IC50 was about 87 nM.
